Assay results reported in patent publication US12404279B2, “Deubiquitinase inhibitors and methods of use thereof” (Molecure S.A., priority 2021, dated 2025).
Counter-ions that a name gives are not always drawn. Like-named read-outs stand apart in the source and are kept apart here.

Target: full-length USP7 (Homo sapiens (Human), UniProt Q93009)
Test: Enzymatic assay to determine IC50 of USP7 inhibitors (Ubiquitin-Rhodamine 110 cleavage)
Type: biochemical
Settings: for inhibition at 1 µM: read-out: percent value of inhibition of USP7 activity; for IC50: 0.5 nM USP7, 0.5 μM Ubiquitin-Rhodamine 110, 45 min at 37° C.
Outline: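 Enzyme: 0.5 nM full-length USP7 in HEPES pH 7.5 buffer with NaCl, DTT, BSA and Tween20, given 15 min at room temperature with DTT before compounds were added.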

[1] = at 1 μM of the test compound, given where IC50 not determined yet

Chain of full-length USP7 (Q93009 whole entry): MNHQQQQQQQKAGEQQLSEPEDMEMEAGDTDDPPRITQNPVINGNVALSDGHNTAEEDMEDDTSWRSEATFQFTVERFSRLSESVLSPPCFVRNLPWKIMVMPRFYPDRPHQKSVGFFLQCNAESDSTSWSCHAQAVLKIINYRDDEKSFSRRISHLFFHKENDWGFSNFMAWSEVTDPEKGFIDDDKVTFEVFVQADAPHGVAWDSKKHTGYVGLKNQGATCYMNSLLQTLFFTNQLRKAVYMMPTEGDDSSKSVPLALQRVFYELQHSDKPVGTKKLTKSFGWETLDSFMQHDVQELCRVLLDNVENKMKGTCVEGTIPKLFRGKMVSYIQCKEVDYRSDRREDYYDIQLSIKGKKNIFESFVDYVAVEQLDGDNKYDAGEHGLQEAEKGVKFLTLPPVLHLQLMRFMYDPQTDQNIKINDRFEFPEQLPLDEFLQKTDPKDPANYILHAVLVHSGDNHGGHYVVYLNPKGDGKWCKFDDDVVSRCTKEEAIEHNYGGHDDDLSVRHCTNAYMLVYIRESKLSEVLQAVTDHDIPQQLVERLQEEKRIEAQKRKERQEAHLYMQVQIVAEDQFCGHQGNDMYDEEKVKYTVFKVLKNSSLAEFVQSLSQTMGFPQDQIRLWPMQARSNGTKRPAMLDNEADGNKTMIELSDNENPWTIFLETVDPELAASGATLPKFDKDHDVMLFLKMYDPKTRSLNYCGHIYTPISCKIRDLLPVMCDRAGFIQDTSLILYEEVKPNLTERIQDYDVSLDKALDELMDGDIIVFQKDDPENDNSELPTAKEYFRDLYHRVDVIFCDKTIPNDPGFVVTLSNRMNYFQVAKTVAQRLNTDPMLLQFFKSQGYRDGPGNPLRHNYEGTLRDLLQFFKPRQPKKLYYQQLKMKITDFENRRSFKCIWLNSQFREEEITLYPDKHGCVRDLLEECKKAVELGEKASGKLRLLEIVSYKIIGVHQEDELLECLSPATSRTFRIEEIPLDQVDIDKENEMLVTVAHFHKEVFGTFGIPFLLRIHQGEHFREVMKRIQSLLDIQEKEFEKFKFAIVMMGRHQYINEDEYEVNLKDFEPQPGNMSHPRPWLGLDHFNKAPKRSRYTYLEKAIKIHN

Row | Compound | IC50 | other results
1 | Cc1cc(Cl)cc(-c2ccnc3nc(CN4C(=O)C5C(C4=O)C5(C)C)sc23)c1O[C@H]1CCCNC1 (stereo partly drawn) [Example 151, 3-((7-(5-chloro-3-methyl-2-(((S)-piperidin-3-yl)oxy)phenyl)thiazolo[4,5-b]pyridin-2-yl)methyl)-6,6-dimethyl-3-azabicyclo[3.1.0]hexane-2,4-dione dihydrochloride] |  | inhibition at 1 µM [1]: < 20%
2 | Cc1cc(C(F)(F)F)nc(-c2ccnc3cc(CN4C(=O)C5C(C4=O)C5(C)C)sc23)c1C(=O)N1C[C@@H](C)[C@H](N(C)C)C1 (stereo partly drawn) [Example 172, 3-((7-(3-((3S,4R)-3-(dimethylamino)-4-methylpyrrolidine-1-carbonyl)-4-methyl-6-(trifluoromethyl)pyridin-2-yl)thieno[3,2-b]pyridin-2-yl)methyl)-6,6-dimethyl-3-azabicyclo[3.1.0]hexane-2,4-dione hydrochloride] |  | inhibition at 1 µM [1]: > 70%
3 | Cc1cc(C(F)(F)F)nc(-c2ccnc3cc(CN4C(=O)C5C(C4=O)C5(C)C)sc23)c1C[C@@H]1CN(C)CCO1 (stereo partly drawn) [Example 98, 6,6-dimethyl-3-((7-(4-methyl-3-(((R)-4-methylmorpholin-2-yl)methyl)-6-(trifluoromethyl)pyridin-2-yl)thieno[3,2-b]pyridin-2-yl)methyl)-3-azabicyclo[3.1.0]hexane-2,4-dione dihydrochloride] | < 500 nM | 
4 | Cc1ccnc(-c2ccnc3cc(CN4C(=O)C5C(C4=O)C5(C)C)sc23)c1CN1CCNCC1 (stereo not drawn) [Example 46, 6,6-dimethyl-3-((7-(4-methyl-3-(piperazin-1-ylmethyl)pyridin-2-yl)thieno[3,2-b]pyridin-2-yl)methyl)-3-azabicyclo[3.1.0]hexane-2,4-dione hydrochloride] |  | inhibition at 1 µM [1]: < 20%
5 | Cc1nc(C#N)cc(-c2ccnc3cc(CN4C(=O)C5C(C4=O)C5(C)C)sc23)c1C(=O)N1CC[C@H](N)C1 (stereo partly drawn) [Example 15, 5-((S)-3-aminopyrrolidine-1-carbonyl)-4-(2-((6,6-dimethyl-2,4-dioxo-3-azabicyclo[3.1.0]hexan-3-yl)methyl)thieno[3,2-b]pyridin-7-yl)-6-methylpicolinonitrile 2,2,2-trifluoroacetate] | < 500 nM | 
6 | Cc1cc(Cl)nc(-c2ccnc3cc(CN4C(=O)C5C(C4=O)C5(C)C)sc23)c1O[C@H]1CCCNC1 (single isomer, unassigned) [Example 4, hydrochloride] | < 500 nM | 
7 | Cc1cc(C(F)(F)F)nc(-c2ccnc3cc(CN4C(=O)C5C(C4=O)C5(C)C)sc23)c1C(=O)N1CCNCC1 (stereo not drawn) [Example 76, 6,6-dimethyl-3-((7-(4-methyl-3-(piperazine-1-carbonyl)-6-(trifluoromethyl)pyridin-2-yl)thieno[3,2-b]pyridin-2-yl)methyl)-3-azabicyclo[3.1.0]hexane-2,4-dione dihydrochloride] | < 500 nM | 
8 | CN[C@@H]1CN(C(=O)c2c(C)cc(C(F)(F)F)nc2-c2ccnc3cc(CN4C(=O)C5C(C4=O)C5(C)C)sc23)C[C@H]1C (stereo partly drawn) [Example 168, 6,6-dimethyl-3-((7-(4-methyl-3-((3R,4S)-3-methyl-4-(methylamino)pyrrolidine-1-carbonyl)-6-(trifluoromethyl)pyridin-2-yl)thieno[3,2-b]pyridin-2-yl)methyl)-3-azabicyclo[3.1.0]hexane-2,4-dione hydrochloride] | < 500 nM | 
9 | Cc1nc(C(F)(F)F)cc(-c2ccnc3cc(CN4C(=O)C5C(C4=O)C5(C)C)sc23)c1NC(=O)C1CNC1 (stereo not drawn) [Example 66, N-(4-(2-((6,6-dimethyl-2,4-dioxo-3-azabicyclo[3.1.0]hexan-3-yl)methyl)thieno[3,2-b]pyridin-7-yl)-2-methyl-6-(trifluoromethyl)pyridin-3-yl)azetidine-3-carboxamide 2,2,2-trifluoroacetate] | 1000 to 10000 nM | 
10 | Cc1cc(C(F)(F)F)nc(-c2ccnc3cc(CN4C(=O)C5C(C4=O)C5(C)C)sc23)c1C(=O)N1[C@@H](C)CNC[C@@H]1C (stereo partly drawn) [Example 141, 3-((7-(3-((2S,6S)-2,6-dimethylpiperazine-1-carbonyl)-4-methyl-6-(trifluoromethyl)pyridin-2-yl)thieno[3,2-b]pyridin-2-yl)methyl)-6,6-dimethyl-3-azabicyclo[3.1.0]hexane-2,4-dione 2,2,2-trifluoroacetate] | < 500 nM | 
11 | Cc1cc(Cl)nc(-c2ccnc3cc(CN4C(=O)C5C(C4=O)C5(C)C)sc23)c1NC1CCNC1 (stereo not drawn) [Example 126, 3-((7-(6-chloro-4-methyl-3-(pyrrolidin-3-ylamino)pyridin-2-yl)thieno[3,2-b]pyridin-2-yl)methyl)-6,6-dimethyl-3-azabicyclo[3.1.0]hexane-2,4-dione tetrahydrochloride] | < 500 nM | 
12 | Cc1ccnc(-c2ccnc3cc(CN4C(=O)C5C(C4=O)C5(C)C)sc23)c1C(=O)N1CCNCC1 (stereo not drawn) [Example 45, 6,6-dimethyl-3-((7-(4-methyl-3-(piperazine-1-carbonyl)pyridin-2-yl)thieno[3,2-b]pyridin-2-yl)methyl)-3-azabicyclo[3.1.0]hexane-2,4-dione hydrochloride] |  | inhibition at 1 µM [1]: < 20%
13 | Cc1c(N(C)C)cc(-c2ccnc3cc(CN4C(=O)C5C(C4=O)C5(C)C)sc23)n1C[C@@H]1CNCCO1 (stereo partly drawn) [Example 177, 3-((7-(4-(dimethylamino)-5-methyl-1-(((S)-morpholin-2-yl)methyl)-1H-pyrrol-2-yl)thieno[3,2-b]pyridin-2-yl)methyl)-6,6-dimethyl-3-azabicyclo[3.1.0]hexane-2,4-dione hydrochloride] |  | inhibition at 1 µM [1]: < 20%
14 | Cc1cc(C(F)(F)F)nc(-c2ccnc3cc(CN4C(=O)C5C(C4=O)C5(C)C)sc23)c1C(=O)N1C[C@@H](F)[C@@H](N)C1 (stereo partly drawn) [Example 171, 3-((7-(3-((3S,4R)-3-amino-4-fluoropyrrolidine-1-carbonyl)-4-methyl-6-(trifluoromethyl)pyridin-2-yl)thieno[3,2-b]pyridin-2-yl)methyl)-6,6-dimethyl-3-azabicyclo[3.1.0]hexane-2,4-dione hydrochloride] |  | inhibition at 1 µM [1]: 50 to 70%
15 | CC1(C)C2C(=O)N(Cc3cc4nccc(-c5cc(F)cnc5O[C@H]5CCNC5)c4s3)C(=O)C21 (stereo partly drawn) [Example 157, 3-((7-(5-fluoro-2-(((S)-pyrrolidin-3-yl)oxy)pyridin-3-yl)thieno[3,2-b]pyridin-2-yl)methyl)-6,6-dimethyl-3-azabicyclo[3.1.0]hexane-2,4-dione dihydrochloride] |  | inhibition at 1 µM [1]: < 20%
16 | Cc1cc(C(F)(F)F)nc(-c2ccnc3cc(CN4C(=O)C5C(C4=O)C5(C)C)sc23)c1NC1CCNCC1 (stereo not drawn) [Example 128, 6,6-dimethyl-3-((7-(4-methyl-3-(piperidin-4-ylamino)-6-(trifluoromethyl)pyridin-2-yl)thieno[3,2-b]pyridin-2-yl)methyl)-3-azabicyclo[3.1.0]hexane-2,4-dione tetrahydrochloride] | < 500 nM | 
17 | CN[C@H]1CCN(Cc2c(C)cc(C(F)(F)F)nc2-c2ccnc3cc(CN4C(=O)C5C(C4=O)C5(C)C)sc23)C1 (stereo partly drawn) [Example 160, 6,6-dimethyl-3-((7-(4-methyl-3-(((S)-3-(methylamino)pyrrolidin-1-yl)methyl)-6-(trifluoromethyl)pyridin-2-yl)thieno[3,2-b]pyridin-2-yl)methyl)-3-azabicyclo[3.1.0]hexane-2,4-dione hydrochloride] | < 500 nM | 
18 | ethyl 5-(2-((6,6-dimethyl-2,4-dioxo-3-azabicyclo[3.1.0]hexan-3-yl)methyl)thieno[3,2-b]pyridin-7-yl)-2-methyl-1-(((S)-morpholin-2-yl)methyl)-1H-pyrrole-3-carboxylate 2,2,2-trifluoroacetate [Example 148] | 1000 to 10000 nM | 
19 | Cc1nc(C(F)(F)F)cc(-c2ccnc3cc(CN4C(=O)C5C(C4=O)C5(C)C)sc23)c1NC(=O)CN1CC(F)(F)C1 (stereo not drawn) [Example 32, 2-(3,3-difluoroazetidin-1-yl)-N-(4-(2-((6,6-dimethyl-2,4-dioxo-3-azabicyclo[3.1.0]hexan-3-yl)methyl)thieno[3,2-b]pyridin-7-yl)-2-methyl-6-(trifluoromethyl)pyridin-3-yl)acetamide 2,2,2-trifluoroacetate] |  | inhibition at 1 µM: < 20%
20 | Cc1ccnc(-c2ccnc3cc(CN4C(=O)C5C(C4=O)C5(C)C)sc23)c1C(O)[C@@H]1CNCCO1 (single isomer, unassigned) [Example 100, 2,2,2-trifluoroacetate] | 1000 to 10000 nM | 
21 | Cc1nc(C(F)(F)F)cc(-c2ccnc3cc(CN4C(=O)C5C(C4=O)C5(C)C)sc23)c1OC1CCNC1 (racemic) [Example 21, 6,6-dimethyl-3-((7-(2-methyl-3-(pyrrolidin-3-yloxy)-6-(trifluoromethyl)pyridin-4-yl)thieno[3,2-b]pyridin-2-yl)methyl)-3-azabicyclo[3.1.0]hexane-2,4-dione 2,2,2-trifluoroacetate] | < 500 nM | 
22 | Cc1cc(Cl)nc(-c2ccnc3cc(CN4C(=O)C5C(C4=O)C5(C)C)sc23)c1OC1CCNC1 (racemic) [Example 2, 3-((7-(6-chloro-4-methyl-3-(pyrrolidin-3-yloxy)pyridin-2-yl)thieno[3,2-b]pyridin-2-yl)methyl)-6,6-dimethyl-3-azabicyclo[3.1.0]hexane-2,4-dione hydrochloride] | < 500 nM | 
23 | Cc1cc(C(F)(F)F)nc(-c2ccnc3cc(CN4C(=O)C5C(C4=O)C5(C)C)sc23)c1CC1CNCCO1 (racemic) [Example 92, 6,6-dimethyl-3-((7-(4-methyl-3-(morpholin-2-ylmethyl)-6-(trifluoromethyl)pyridin-2-yl)thieno[3,2-b]pyridin-2-yl)methyl)-3-azabicyclo[3.1.0]hexane-2,4-dione 2,2,2-trifluoroacetate] | < 500 nM | 
24 | N-(2-(2-((6,6-dimethyl-2,4-dioxo-3-azabicyclo[3.1.0]hexan-3-yl)methyl)thieno[3,2-b]pyridin-7-yl)-4-methyl-6-(trifluoromethyl)pyridin-3-yl)azetidine-3-carboxamide 2,2,2-trifluoroacetate [Example 28] | < 500 nM | 
